Results published in patent US12606561B2, “Substituted pyrazolo[1,5-a][1,3,5]triazines as CDK inhibitors” (QURIENT CO., LTD., priority 2018, dated 2026).

Legend:
CDK2/Cyclin A = biological target: T1, CDK2/Cyclin A (Homo sapiens, UniProt P24941); experiment: Enzymatic assay for CDK2 (LANCE Ultra kinase assay, FRET based); assay type: biochemical; conditions: ATP at Km
T1 construct: purchased Invitrogen PV6290
Procedure, shortened: (§1)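 Inhibition was measured at ATP Km with 68 nM ULight-MBP peptide and CDK2/Cyclin A ([…]) or CDK5/p25 ([…]), using 8-dose 4-fold compound dilutions from DMSO. Kinase reaction ran 60 min at 23° C, then Eu anti-phospho-MBP plus EDTA were added for another 60 min before the fluorescence read.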

CDK5/p25 = biological target: T2, CDK5/p25 (Homo sapiens, UniProt Q00535); experiment: Enzymatic assay for CDK5 (LANCE Ultra kinase assay, FRET based); assay type: biochemical; conditions: ATP at Km
T2 construct: purchased Invitrogen PR8543B
Procedure, shortened: as §1

H460 = experiment: Cellular H460 viability assay (CellTiter-Glo, 72 hours); assay type: cell-based; conditions: Homo sapiens, NCI-H460; H460 cells
MV4-11 = experiment: Cellular MV4-11 viability assay (CellTiter-Glo, 72 hours); assay type: cell-based; conditions: Homo sapiens; MV4-11 cells
Procedure, shortened: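 CellTiter-Glo luminescence measured viability after 72 h of compound exposure (0.0015–10 uM; DMSO below 0.1%) at 37 °C, 5% CO2, run in duplicate. Dosing began 24 h post-seeding in RPMI-1640/10% FBS at 1×10^4 (MV4-11), 5×10^3 (OVCAR-3) or 1×10^3 (A2780) cells/well.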

T2 sequence (Q00535 whole entry): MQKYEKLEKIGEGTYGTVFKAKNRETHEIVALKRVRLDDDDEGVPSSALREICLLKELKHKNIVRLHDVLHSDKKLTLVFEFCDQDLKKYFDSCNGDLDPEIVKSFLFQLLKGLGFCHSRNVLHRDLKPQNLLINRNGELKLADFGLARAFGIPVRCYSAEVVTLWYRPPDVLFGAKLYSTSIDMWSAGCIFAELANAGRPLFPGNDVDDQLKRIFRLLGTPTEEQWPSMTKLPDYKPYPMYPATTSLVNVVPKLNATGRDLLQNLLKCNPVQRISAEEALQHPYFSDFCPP
T2 sequence (Q15078 99-307 partner limits assumed): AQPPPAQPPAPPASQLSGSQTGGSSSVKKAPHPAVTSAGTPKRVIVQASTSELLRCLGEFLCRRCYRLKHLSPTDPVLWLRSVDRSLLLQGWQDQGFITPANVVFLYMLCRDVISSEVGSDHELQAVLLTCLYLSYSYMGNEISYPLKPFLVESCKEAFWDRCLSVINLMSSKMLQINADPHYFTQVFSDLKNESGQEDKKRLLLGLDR

## CC(C)c1cnn2c(NCc3ccccc3-c3nccc4cc(NC(=O)/C=C/CN(C)C)ccc34)nc(N3CCC(N)CC3)nc12 [Compound 11]
CDK2/Cyclin A
  IC50: > 1000 nM
CDK5/p25
  IC50: > 1000 nM
H460
  IC50: < 1000 nM
MV4-11
  IC50: < 1000 nM
